{
  "source": "patent US10730881B2",
  "about": "“Fused pyrimidine derivatives” (Hoffmann-La Roche Inc., priority 2016, dated 2020)",
  "target": "γ-secretase (Homo sapiens, UniProt P49768)",
  "assay": "Cellular γ-secretase assay (inhibition of Aβ42 secretion, AlphaLisa)",
  "assay_type": "cell-based",
  "conditions": "human neuroglioma H4 cells overexpressing human APP695 Swedish double mutation, 24 hr compound incubation",
  "protocol": "Human neuroglioma H4 cells overexpressing human APP695 with the Swedish double mutation (K595N/M596L) were plated at 30,000 cells/well/100 μl in 96-well plates in IMDM media containing 10% FCS, 0.2 mg/l Hygromycin B and incubated at 37° C., 5% CO2. 3-4 hr post plating, compounds are a diluted in media and 50 μl is added as 1.5-fold concentrate to achieve the final concentration. Compound incubation is performed for 24 hr. Final doses typically range from 4 μM down to 0.0013 μM in half-log steps resulting in a eight point dose response curve. Appropriate controls using vehicle only and reference compound were applied to this assay. The final concentration of Me2SO was 0.4%. After incubation at 37° C., 5% CO2, the supernatant was subjected to quantification of secreted Aβ42 by the means of an AlphaLisa assay kit (Human Amyloid beta 1-42 Kit: Cat # A[…], Perkin Elmer). 20 μl of the cell culture supernatant was transferred to an assay plate. […] The assay plate was then read on a Paradigm AlphaLisa Reader using the build-in program with excitation at 680 nm and emission at 570 nm. The measured signals were then used to calculate IC50 values for inhibition of Aβ42 secretion by nonlinear regression fit analysis using XLfit 5.3 software (IDBS).",
  "data": [
    {"smiles": "CNc1nc(N[C@@H]2[C@@H]3CC[C@H]2CN(c2cc(C)ncn2)C3)nc2c1C(C)(C)CN2C1CC(F)(F)C1", "note": "[Example 13, 7-(3,3-Difluorocyclobutyl)-N4,5,5-trimethyl-N2-((1R,5S,8s)-3-(6-methylpyrimidin-4-yl)-3-azabicyclo[3.2.1]octan-8-yl)-6,7-dihydro-5H-pyrrolo[2,3-d]pyrimidine-2,4-diamine]", "values": [
      {"measurement": "EC50", "value": 36, "unit": "nM"}
    ]}
  ]
}
